Assay results from the supplement of paper PMC9663587.

Key:
Test in all cases: area over the GR curve, 72 h; higher = more effect;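 also: Dye Drop or Deep Dye Drop imaging of viable cells in 384-well plates (Hoechst nuclei, LIVE/DEAD dye), nine half-log doses, GR normalized to DMSO controls and time-zero plates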
BT20 = test system: BT20
CAL120 = test system: CAL120
HCC1806 = test system: HCC1806
MCF10A = test system: MCF10A
MCF12A = test system: MCF12A
MDAMB330 = test system: MDAMB330
MDAMB415 = test system: MDAMB415
MDAMB453 = test system: MDAMB453
SKBR3 = test system: SKBR3
SUM1315 = test system: SUM1315
SUM149 = test system: SUM149
SUM44PE = test system: SUM44PE

| Compound | area over the GR curve (BT20) [GR] | area over the GR curve (CAL120) [GR] | area over the GR curve (HCC1806) [GR] | area over the GR curve (MCF10A) [GR] | area over the GR curve (MCF12A) [GR] | area over the GR curve (MDAMB330) [GR] | area over the GR curve (MDAMB415) [GR] | area over the GR curve (MDAMB453) [GR] | area over the GR curve (SKBR3) [GR] | area over the GR curve (SUM1315) [GR] | area over the GR curve (SUM149) [GR] | area over the GR curve (SUM44PE) [GR] |
| --- | --- | --- | --- | --- | --- | --- | --- | --- | --- | --- | --- | --- |
| CCc1cncnc1N1CCN(Cc2nc3ccc(C(F)(F)F)cc3[nH]2)CC1 (max 10 µM) | -0.0022 | 0.0139 | -0.0429 | 0.0475 | -0.0039 | 0.0392 | 0.0085 | -0.0403 | 0.0204 | 0.0975 | 0.0207 | 0.0041 |
| CN(C)CC[C@H](CSc1ccccc1)Nc1ccc(S(=O)(=O)NC(=O)c2ccc(N3CCN(Cc4ccccc4-c4ccc(Cl)cc4)CC3)cc2)cc1[N+](=O)[O-] [ABT-737] (max 10 µM) | 0.0208 | 0.2 | -0.111 | 0.0104 | 0.0052 | 0.189 | 0.0607 | -0.0061 | -0.0209 | 0.0822 | 0.142 | -0.0051 |
| C=CCn1c(=O)c2cnc(Nc3ccc(N4CCN(C)CC4)cc3)nc2n1-c1cccc(C(C)(C)O)n1 [AZD1775] (max 10 µM) | 0.198 | 0.483 | 0.847 | 0.0857 | 0.255 | 0.655 | 0.28 | 0.563 | 0.528 | 1.02 | 0.614 | 0.502 |
| CNC(=O)c1cccc(-c2ccc3c(N4CCOC[C@@H]4C)nc(N4CCOC[C@@H]4C)nc3n2)c1 [AZD2014] (max 10 µM) | 0.484 | 0.464 | 0.349 | 0.4 | 0.529 | 1.38 | 0.762 | 0.692 | 0.87 | 0.663 | 0.385 | 0.917 |
| NC1(C(=O)N[C@@H](CCO)c2ccc(Cl)cc2)CCN(c2nc[nH]c3nccc2-3)CC1 [AZD5363] (max 10 µM) | 0.298 | 0.0399 | 0.0705 | 0.0283 | 0.142 | 0.52 | 0.855 | 0.234 | 0.23 | 0.144 | 0.109 | 0.596 |
| C[C@@H]1COCCN1c1cc(C2([S@](C)(=N)=O)CC2)nc(-c2cc[nH]c3nccc2-3)n1 [AZD6738] (max 10 µM) | -0.0437 | -0.169 | 0.307 | 0.0334 | 0.192 | 0.0364 | 0.0148 | 0.0984 | 0.335 | 0.0543 | 0.117 | 0.365 |
| NC(=O)Nc1cc(-c2cccc(F)c2)sc1C(=O)N[C@H]1CCCNC1 [AZD7762] (max 10 µM) | 0.197 | 0.492 | 0.89 | 0.225 | 0.521 | 0.704 | 0.398 | 0.853 | 0.88 | 0.68 | 0.657 | 0.738 |
| Cc1nc(NC(=O)N2CCC[C@H]2C(N)=O)sc1-c1ccnc(C(C)(C)C(F)(F)F)c1 [Alpelisib/BYL719] (max 10 µM) | 0.201 | 0.0922 | 0.0386 | 0.113 | 0.0144 | 0.279 | 0.0453 | 0.335 | 0.379 | 0.116 | 0.0367 | 0.33 |
| CN(C)C/C=C/C(=O)Nc1ccc(O[C@@H]2CCC[C@@H](Nc3ncc(Cl)c(-c4c[nH]c5ccccc45)n3)C2)cc1 [BSJ-01-175] (max 10 µM) | 0.812 | 0.667 | 0.581 | 0.3 | 0.146 | 1.22 | 0.676 | 1.08 | 1.04 | 0.509 | 0.747 | 1.27 |
| CC(=O)c1c(C)c2cnc(Nc3ccc(N4CCN(CCOCCOCCOCCNC(=O)COc5cccc6c5C(=O)N(C5CCC(=O)NC5=O)C6=O)CC4)cn3)nc2n(C2CCCC2)c1=O (configuration not stated) [BSJ-03-123] (max 10 µM) | 0.423 | 0.16 | 0.21 | 0.323 | 0.136 | 0.443 | 0.332 | 0.267 | 0.338 | 0.312 | 0.293 | 0.284 |
| CC(C)Nc1cc(-c2c[nH]c(C(=O)N[C@H](CO)c3cccc(Cl)c3)c2)c(Cl)cn1 [BVD523] (max 10 µM) | 0.132 | 0.108 | 0.0314 | 0.311 | 0.111 | 0.133 | 0.121 | 0.0704 | 0.124 | 0.0786 | 0.233 | 0.218 |
| Nc1cc(C(F)(F)F)c(-c2cc(N3CCOCC3)nc(N3CCOCC3)n2)cn1 [Buparlisib/NVP-BKM120] (max 10 µM) | 0.359 | 0.339 | 0.305 | 0.249 | 0.168 | 0.442 | 0.35 | 0.331 | 0.585 | 0.438 | 0.248 | 0.436 |
| COc1cc2nccc(Oc3ccc(NC(=O)C4(C(=O)Nc5ccc(F)cc5)CC4)cc3)c2cc1OC [Cabozantinib] (max 10 µM) | 0.0446 | 0.0847 | -0.021 | -0.0114 | -0.0141 | 0 | -0.0499 | -0.0455 | -0.0595 | 0.105 | 0.0344 | 0.0196 |
| COc1cc2c(Oc3ccc4[nH]c(C)cc4c3F)ncnc2cc1OCCCN1CCCC1 [Cediranib/AZD2171] (max 10 µM) | 0.0199 | 0.299 | 0.0606 | 0.031 | -0.0002 | 0.105 | 0.246 | 0.126 | 0.063 | 0.243 | 0.0456 | -0.0271 |
| Cc1cc(Nc2ncc(Cl)c(Nc3ccccc3S(=O)(=O)C(C)C)n2)c(OC(C)C)cc1C1CCNCC1 [Ceritinib/LDK378] (max 10 µM) | 0.255 | 0.337 | 0.156 | 0.184 | 0.0596 | 0.187 | 0.085 | 0.461 | 0.301 | 0.413 | 0.249 | 0.131 |
| Cc1nc(Nc2ncc(C(=O)Nc3c(C)cccc3Cl)s2)cc(N2CCN(CCO)CC2)n1 [Dasatinib] (max 10 µM) | 0.329 | 0.519 | 0.63 | 0.339 | 0.42 | 0.183 | 0.272 | 0.0776 | -0.0183 | 0.74 | 0.52 | 0.128 |

| Compound | area over the GR curve (BT20) [GR] | area over the GR curve (CAL120) [GR] | area over the GR curve (HCC1806) [GR] | area over the GR curve (MCF10A) [GR] | area over the GR curve (MCF12A) [GR] | area over the GR curve (MDAMB330) [GR] | area over the GR curve (MDAMB415) [GR] | area over the GR curve (MDAMB453) [GR] | area over the GR curve (SKBR3) [GR] | area over the GR curve (SUM1315) [GR] | area over the GR curve (SUM149) [GR] | area over the GR curve (SUM44PE) [GR] |
| --- | --- | --- | --- | --- | --- | --- | --- | --- | --- | --- | --- | --- |
| COc1cccc2c1C(=O)c1c(O)c3c(c(O)c1C2=O)C[C@@](O)(C(=O)CO)C[C@@H]3O[C@H]1C[C@H](N)[C@H](O)[C@H](C)O1 [Doxorubicin] (max 3.162 µM) | 0.828 | 0.697 | 0.628 | 0.655 | 0.601 | 0.716 | 0.834 | 0.786 | 0.942 | 0.513 | 0.754 | 0.629 |
| CO[C@H]1C[C@@H]2CC[C@@H](C)[C@@](O)(O2)C(=O)C(=O)N2CCCC[C@H]2C(=O)O[C@H]([C@H](C)C[C@@H]2CC[C@@H](OCCO)[C@H](OC)C2)CC(=O)[C@H](C)/C=C(\C)[C@@H](O)[C@@H](OC)C(=O)[C@H](C)C[C@H](C)/C=C/C=C/C=C/1C [Everolimus] (max 10 µM) | 0.593 | 0.416 | 0.197 | 0.113 | 0.273 | 1.28 | 0.807 | 0.888 | 0.794 | 0.454 | 0.201 | 0.734 |
| CCC(=O)Nc1ccc(C(=O)Nc2ccc(Nc3ncc4c(n3)N(C)c3ccc(C)cc3C(=O)N4C)cc2)cc1 [FMF-03-145-1] | 1.2 | 0.34 | 1.08 | 1.05 | 0.345 | 0.814 | 0.845 | 0.392 | 0.464 | 0.539 | 0.462 | 1.15 |
| COc1cc(N2CCN(C)CC2)ccc1Nc1ncc2c(n1)N(C)c1ccccc1C(=O)N2CC(F)(F)F [FMF-03-146-1] | 0.0278 | -0.0113 | 0.0215 | -0.0018 | 0.0258 | 0.0128 | 0.0297 | 0.0207 | 0.0465 | 0.0401 | -0.0043 | 0.016 |
| CN1CC[C@H](c2c(O)cc(O)c3c(=O)cc(-c4ccccc4Cl)oc23)[C@H](O)C1 [Flavopiridol] (max 1 µM) | 0.334 | 0.229 | 0.257 | 0.277 | 0.167 | 0.285 | 0.284 | 0.272 | 0.342 | 0.416 | 0.255 | 0.406 |
| CC(C)n1nc(-c2ccc3oc(N)nc3c2)c2c(N)ncnc21 [INK128/MLN0128] (max 3.162 µM) | 0.568 | 0.602 | 0.39 | 0.467 | 0.495 | 1.08 | 0.692 | 0.756 | 0.971 | 0.647 | 0.318 | 0.781 |
| CC(C)NC[C@@H](C(=O)N1CCN(c2ncnc3c2[C@H](C)C[C@H]3O)CC1)c1ccc(Cl)cc1 [Ipatasertib/GDC0068] (max 10 µM) | 0.311 | 0.13 | 0.0145 | 0.06 | 0.0679 | 0.421 | 0.758 | 0.27 | 0.152 | 0.124 | 0.124 | 0.412 |
| CN(C)C(=O)c1cc2cnc(Nc3ccc(N4CCNCC4)cn3)nc2n1C1CCCC1 [LEE011/Ribociclib] (max 10 µM) | 0.433 | 0.265 | 0.141 | 0.235 | 0.0926 | 0.824 | 0.613 | 0.555 | 0.34 | 0.35 | 0.188 | 0.357 |
| CCNC(=O)c1noc(-c2cc(C(C)C)c(O)cc2O)c1-c1ccc(CN2CCOCC2)cc1 [Luminespib/NVP-AUY922] (max 1 µM) | 0.559 | 0.693 | 0.539 | 0.613 | 0.619 | 0.887 | 0.613 | 0.848 | 0.714 | 0.606 | 0.754 | 0.804 |
| CCOc1cc2ncc(C#N)c(Nc3ccc(OCc4ccccn4)c(Cl)c3)c2cc1NC(=O)/C=C/CN(C)C [Neratinib/HKI272] (max 3.162 µM) | 0.147 | 0.224 | 0.191 | 0.344 | 0.194 | 1.18 | 0.0594 | 0.553 | 0.891 | 0.364 | 0.358 | 0.568 |
| O=C(c1cc(Cc2n[nH]c(=O)c3ccccc23)ccc1F)N1CCN(C(=O)C2CC2)CC1 [Olaparib/AZD2281] (max 10 µM) | 0.0657 | 0.143 | 0.0953 | 0.0408 | 0.0468 | 0.0605 | -0.0472 | 0.241 | 0.04 | 0.245 | 0.184 | -0.0366 |
| CC(=O)O[C@H]1C(=O)[C@@]2(C)[C@H]([C@H](OC(=O)c3ccccc3)[C@]3(O)C[C@H](OC(=O)[C@H](O)[C@@H](NC(=O)c4ccccc4)c4ccccc4)C(C)=C1C3(C)C)[C@]1(OC(C)=O)CO[C@@H]1C[C@@H]2O [Paclitaxel] (max 1 µM) | 0.985 | 0.746 | 0.838 | 0.702 | 0.586 | 0.846 | 0.948 | 0.658 | 0.89 | 0.793 | 0.839 | 0.953 |
| CS(=O)(=O)N1CCN(Cc2cc3nc(-c4cccc5[nH]ncc45)nc(N4CCOCC4)c3s2)CC1 [Pictilisib/GDC0941] (max 10 µM) | 0.296 | 0.255 | 0.118 | 0.262 | 0.089 | 0.53 | 0.378 | 0.391 | 0.512 | 0.371 | 0.117 | 0.392 |
| O=C1NC(=NCc2cccs2)SC1=Cc1ccc2ncccc2c1 [R0-3306] (max 10 µM) | 0.109 | 0.0133 | 0.085 | 0.115 | 0.041 | 0.0605 | 0.0262 | 0.102 | 0.163 | 0.195 | 0.106 | 0.276 |
| CNCc1ccc(-c2[nH]c3cc(F)cc4c3c2CCNC4=O)cc1 [Rucaparib] (max 10 µM) | 0.0785 | 0.125 | 0.117 | 0.0413 | 0.0783 | 0.107 | 0.11 | 0.14 | 0.119 | 0.371 | 0.2 | 0.0038 |
